One test deals with HCT116 cells. In words: Antiproliferative activity, Alamar Blue assay, HCT116 cells. Particulars: Homo sapiens, HCT-116, HCT116 cells, read-out: HCT116 antiproliferative activity pIC50 (converted). Type of test: cell-based, human. The gist of the method:
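HCT116 cells seeded, adhered 24 h, then exposed to compound for 4 days; Alamar Blue (resazurin) added for 4 h at 37 °C, fluorescence read at 540/590 nm. Viability as % of untreated control, triplicate wells; IC50 by probit analysis, reported as pIC50.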

For the next test, the target named is T1, Human PARP-1 enzyme (Homo sapiens, UniProt P09874).
T1 construct: purchased Trevigen
As to the kind of experiment: In vitro Scintillation Proximity Assay (SPA) for PARP-1 inhibitory activity. The class given is biochemical. As to conditions: read-out: in vitro SPA assay PARP-1 pIC50 (converted). In short, it runs like this: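 SPA assay: nicked-DNA-activated PARP-1 (0.1–0.2 μg/ml) ADP-ribosylates biotinylated histones (2 μg/ml) using [3H]-NAD+, 20 min at RT in Tris pH 8/DTT/MgCl2, stopped with 2 mM NAD+. Blank-subtracted cpm expressed as % control; IC50 by linear interpolation, reported as pIC50 (10−5 to 3×10−9 M tested).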
Background: SPA uses beads or plates that emit light when radiolabelled molecules are held near them.

The test system of the next test is PC-3 cells. In words: Antiproliferative activity, Alamar Blue assay, PC-3 cells. As to conditions: Homo sapiens, PC-3, PC3 cells, read-out: PC3 antiproliferative activity pIC50 (converted). Type of test: cell-based, human. The gist of the method: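 PC-3 cells seeded at 4.5×10^3 cells/ml, left to adhere 24 hr, then exposed to compound for 4 days. Resazurin (Alamar Blue) added for a further 24 hrs at 37° C; fluorescence read at 540/590 nm. Viability as % of untreated control, mean of 3 wells; IC50 by probit analysis, reported as pIC50.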

Each structure is given as a SMILES string. Read-outs that look alike come from different tables or passages of the source.

T1 sequence (P09874 whole entry): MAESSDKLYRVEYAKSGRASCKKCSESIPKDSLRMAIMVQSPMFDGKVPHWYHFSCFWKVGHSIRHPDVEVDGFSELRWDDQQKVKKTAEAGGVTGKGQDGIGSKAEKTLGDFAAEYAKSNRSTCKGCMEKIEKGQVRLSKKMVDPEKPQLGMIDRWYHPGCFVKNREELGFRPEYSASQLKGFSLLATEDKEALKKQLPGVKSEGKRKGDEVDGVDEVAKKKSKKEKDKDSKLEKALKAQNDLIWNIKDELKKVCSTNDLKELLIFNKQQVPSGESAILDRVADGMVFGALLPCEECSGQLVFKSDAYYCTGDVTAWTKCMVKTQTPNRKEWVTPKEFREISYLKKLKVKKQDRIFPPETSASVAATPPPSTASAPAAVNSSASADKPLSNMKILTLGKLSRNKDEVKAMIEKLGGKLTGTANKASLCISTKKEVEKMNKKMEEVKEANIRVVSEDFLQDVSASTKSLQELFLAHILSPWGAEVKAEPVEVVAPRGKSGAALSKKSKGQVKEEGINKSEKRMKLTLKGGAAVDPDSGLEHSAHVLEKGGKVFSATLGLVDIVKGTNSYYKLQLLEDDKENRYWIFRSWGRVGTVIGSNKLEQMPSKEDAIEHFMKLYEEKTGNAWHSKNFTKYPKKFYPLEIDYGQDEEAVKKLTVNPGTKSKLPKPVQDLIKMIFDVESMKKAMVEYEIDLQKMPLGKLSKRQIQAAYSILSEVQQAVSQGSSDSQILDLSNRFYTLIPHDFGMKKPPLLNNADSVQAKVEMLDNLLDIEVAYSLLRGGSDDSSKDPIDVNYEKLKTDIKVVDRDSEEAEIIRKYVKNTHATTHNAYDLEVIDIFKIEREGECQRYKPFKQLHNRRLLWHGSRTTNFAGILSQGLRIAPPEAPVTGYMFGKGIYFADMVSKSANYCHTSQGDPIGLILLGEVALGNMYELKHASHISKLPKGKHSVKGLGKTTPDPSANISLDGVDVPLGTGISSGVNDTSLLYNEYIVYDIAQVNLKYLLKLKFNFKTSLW

With `CCc1cc2ccc(C(C)(C#N)Cc3ccccc3C#N)cc2[nH]c1=O` (stereo not drawn) [Compound 101], the IC50 was 2510 nM with HCT116 cells, 50.1 nM at Human PARP-1 enzyme and 3160 nM in the test with PC-3 cells.
For the compound `CCc1cc2ccc(C(C)(C#N)Cc3ccccc3OC(F)(F)F)cc2[nH]c1=O` (stereo not drawn) [Compound 102], the IC50 with HCT116 cells is 2000 nM; on Human PARP-1 enzyme it was 1580 nM; with PC-3 cells, 1000 nM.
The like results for `CCc1cc2ccc(C(C)(C#N)Cc3ccccc3C(F)(F)F)cc2[nH]c1=O` (stereo not drawn) [Compound 103] were, in that order, 1000 nM, 1260 nM and 631 nM.
Turning to `Cc1cc2ccc(C(C)(C#N)Cc3cc4ccccc4[nH]3)cc2[nH]c1=O` (stereo not drawn) [Compound 234], the figures for the IC50 in the test with HCT116 cells (Alamar Blue), on Human PARP-1 enzyme and in the test with PC-3 cells (Alamar Blue) were 5010 nM, 251 nM and 10000 nM, respectively.
The matching figures for `CCc1cc2ccc(C(C)(C#N)Cc3ccc(F)c(C#N)c3)cc2[nH]c1=O` (stereo not drawn) [Compound 267]: 200 nM, 79.4 nM and 501 nM.
The like results for `CCc1cc2ccc(C(C)(C#N)CCOc3ccccc3C#N)cc2[nH]c1=O` (stereo not drawn) [Compound 276] were, in that order, 1580 nM, 79.4 nM and 2510 nM.
Consider `CCc1cc2ccc(C(C)(C#N)CCOc3cc(Cl)c(Cl)cc3Cl)cc2[nH]c1=O` (stereo not drawn) [Compound 277], for which the values for the IC50 with HCT116 cells (Alamar Blue), on Human PARP-1 enzyme and with PC-3 cells (Alamar Blue) were 501 nM, 398 nM and 501 nM, respectively.
As to `CCc1cc2ccc(C(C)(C#N)CCOc3ccccc3F)cc2[nH]c1=O` (stereo not drawn) [Compound 278], the figures for the IC50 with HCT116 cells (Alamar Blue), at Human PARP-1 enzyme and with PC-3 cells (Alamar Blue) were 1580 nM, 100 nM and 2000 nM, respectively.
The matching figures for `CCc1cc2ccc(C(C)(C#N)CCOc3ccc4c(c3)OCO4)cc2[nH]c1=O` (stereo not drawn) [Compound 279]: 1260 nM, 79.4 nM and 1580 nM.
In the case of `CCc1cc2ccc(C(C)(C#N)Cc3cc(OC)cc(OC)c3)cc2[nH]c1=O` (stereo not drawn) [Compound 332], the figures for the IC50 with HCT116 cells (Alamar Blue), at Human PARP-1 enzyme and in the test on PC-3 cells (Alamar Blue) were 100 nM, 79.4 nM and 251 nM, respectively.

These data come from US8778966B2, “Quinolinone derivatives as PARP and tank inhibitors” (Janssen Pharmaceutica, NV, priority 2007, dated 2014).
